Reference: publication PMC11866180, “Facile Synthesis of Carbamoyl Fluorides viaN-Carbamoylimidazole Activation” (ACS Omega, 2025)
Read-outs that look alike come from different tables or passages of the source.

Key:
Test in all cases: Ellman assay, […] nm
Assay type in all cases: biochemical
[1] = target: T1, hAChE (human acetylcholinesterase) (Homo sapiens, UniProt P22303)
T1 construct: gene ACHE

[2] = target: T2, hBChE (human butyrylcholinesterase) (Homo sapiens, UniProt P06276)
T2 construct: gene BCHE
T2 sequence (P06276 29-602): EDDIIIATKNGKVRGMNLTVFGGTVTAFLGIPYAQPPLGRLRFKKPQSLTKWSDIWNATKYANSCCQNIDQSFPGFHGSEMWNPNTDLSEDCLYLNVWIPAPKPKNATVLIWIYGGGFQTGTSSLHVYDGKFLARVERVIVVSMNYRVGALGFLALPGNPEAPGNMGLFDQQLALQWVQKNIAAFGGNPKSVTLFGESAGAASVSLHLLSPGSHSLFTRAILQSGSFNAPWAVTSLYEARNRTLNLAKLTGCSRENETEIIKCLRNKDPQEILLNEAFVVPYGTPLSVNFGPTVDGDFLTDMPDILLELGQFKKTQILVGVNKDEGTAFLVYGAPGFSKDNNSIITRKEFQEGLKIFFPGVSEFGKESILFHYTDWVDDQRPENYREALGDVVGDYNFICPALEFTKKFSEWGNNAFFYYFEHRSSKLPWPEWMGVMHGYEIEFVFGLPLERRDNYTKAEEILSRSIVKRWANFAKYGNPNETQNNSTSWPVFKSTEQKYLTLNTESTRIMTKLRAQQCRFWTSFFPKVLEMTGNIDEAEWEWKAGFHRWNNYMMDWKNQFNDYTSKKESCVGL

[3] = target: T2, hBChE (human butyrylcholinesterase); remark: listed apart in the source

T1 sequence (P22303 32-614): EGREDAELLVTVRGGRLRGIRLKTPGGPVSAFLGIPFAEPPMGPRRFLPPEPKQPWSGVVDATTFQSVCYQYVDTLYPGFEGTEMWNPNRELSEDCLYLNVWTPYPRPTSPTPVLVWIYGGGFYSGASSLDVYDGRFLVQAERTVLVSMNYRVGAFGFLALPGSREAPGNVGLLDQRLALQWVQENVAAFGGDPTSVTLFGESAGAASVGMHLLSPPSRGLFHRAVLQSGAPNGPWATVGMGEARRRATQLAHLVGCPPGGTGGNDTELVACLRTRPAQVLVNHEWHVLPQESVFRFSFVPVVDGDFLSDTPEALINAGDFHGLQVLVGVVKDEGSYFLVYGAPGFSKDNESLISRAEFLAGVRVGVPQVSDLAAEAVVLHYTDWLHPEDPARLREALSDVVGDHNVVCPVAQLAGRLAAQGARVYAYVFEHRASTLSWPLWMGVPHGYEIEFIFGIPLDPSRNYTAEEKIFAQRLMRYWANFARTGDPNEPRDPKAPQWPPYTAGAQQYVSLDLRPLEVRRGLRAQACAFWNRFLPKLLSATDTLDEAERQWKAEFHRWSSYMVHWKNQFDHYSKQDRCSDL

Row | SMILES | IC50 ([1]; read-out: hAChE) | IC50 ([2]; read-out: hBChE) | IC50 [1] | IC50 [2] | activity at 100 µM [3]
1 | CN(Cc1ccccc1)C(=O)F [3a, Benzyl(methyl)carbamic Fluoride] | 5.65 ± 0.947 µM | 156 ± 9 nM | – | – | –
2 | O=C(F)N(Cc1ccccc1)Cc1ccccc1 [3b, Dibenzylcarbamic Fluoride] | 2.2 ± 0.27 µM | 69.6 ± 4 nM | – | – | –
3 | CCCCN(Cc1ccccc1)C(=O)F [3c, Benzyl(butyl)carbamic Fluoride] | – | – | 4.48 ± 1.14 µM | 2430 ± 400 nM | –
4 | O=C(F)N1CCc2ccccc21 [3d, Indoline-1-carbonyl Fluoride] | 4.62 ± 1.15 µM | – | – | – | 56.2 ± 3.7%
5 | O=C(F)N1Cc2ccccc2C1 [3e, Isoindoline-2-carbonyl Fluoride] | 103 µM | 32200 nM | – | – | –
6 | O=C(F)N1CCc2ccccc2C1 [3f, 3,4-Dihydroisoquinoline-2(1H)-carbonyl Fluoride] | 22.6 µM | 707 ± 122 nM | – | – | –
7 | O=C(F)N1CCC(Cc2ccccc2)CC1 [3g, 4-Benzylpiperidine-1-carbonyl Fluoride] | 0.554 ± 0.079 µM | 2.78 ± 0.15 nM | – | – | –
8 | O=C(F)N1CCC(c2c[nH]c3ccccc23)CC1 [3h, 4-(1H-Indol-3-yl)piperidine-1-carbonyl Fluoride] | – | – | 18.7 µM | 23.5 ± 4.6 nM | –
9 | C#CCCCCCCCCCN(C)C(=O)F [3i, Methyl(undec-10-yn-1-yl)carbamic Fluoride] | – | – | 5.07 ± 1.15 µM | 197 ± 36 nM | –
10 | O=C(F)N1CCN(c2ccccc2F)CC1 [3j, 4-(2-Fluorophenyl)piperazine-1-carbonyl Fluoride] | – | – | 10.7 µM | 656 ± 32 nM | –
11 | CN(C(=O)F)c1cccc2cc[nH]c12 [3k, (1H-Indol-7-yl)(methyl)carbamic Fluoride] | 0.151 ± 0.008 µM | 5.56 ± 0.83 nM | – | – | –
